The results in this text go back to patent US6495591B1, “Fungal efflux pump inhibitors” (Essential Therapeutics, Inc., priority 1997, dated 2002).

Read-outs that look alike come from different tables or passages of the source.

Data set [1] concerns P388 cell line (mouse leukemia), adriamycin sensitive. Nature of the data set: Adriamycin cytotoxicity (MTT), P-glycoprotein assay. The procedure: (§1) The inhibitory effect of milbemycin β1 against the mammalian P-glycoprotein multi-drug resistant pump was determined following the procedure described by Tsuruo et al (Cancer Res., 1981. 41:1967-1972) with slight modification. The cytotoxicity of antitumor agent, adriamycin, against adriamycin sensitive P388 cell line (mouse leukemia) and its adriamycin resistant subline line (P388/ADM) was measured in the presence of various concentrations of milbemycin β1. […] The assay is performed in serum-free media containing 20 μM of 2-mercaptoethanol. Chemosensitivity to adriamycin was determined […] based on the reduction of MTT (3-[4,5-dimethylthiazol-2-yl]-2,5-diphenyltetrazolium bromide) into blue formazan.

Data set [2] relates to P388/ADM, adriamycin resistant subline. The description is as above. The procedure: as §1
Data set [3] concerns mammalian P-glycoprotein multi-drug resistant pump. In kind it is cell-based, mouse. Conditions: no inhibitor (None). As to the method: as §1
Data set [4] concerns the target pCDRI (ABC) efflux pump in S. cerevisiae YEM-1 (Candida albicans, UniProt P43071). Briefly: cell-based. In kind it is cell-based, C. albicans.
Data set [5] deals with pCDR2 (ABC) efflux pump in S. cerevisiae YEM-37 (Candida albicans, UniProt P78595). Briefly: cell-based. In kind it is cell-based, C. albicans.
In data set [6] the target is pCgCDR (ABC) efflux pump in S. cerevisiae YEM-39 (Candida glabrata, UniProt Q6FK23). Briefly: cell-based. In kind it is cell-based, C. glabrata.
Data set [7] addresses pBEN (MF) efflux pump in S. cerevisiae YEM-2 (Candida albicans, UniProt P28873). Briefly: cell-based. The data set is classed as cell-based, C. albicans.
The target of data set [8] is pFLU (MF) efflux pump in S. cerevisiae YEM-38 (Candida albicans, UniProt G1UB37). Nature of the data set: cell-based. In kind it is cell-based, C. albicans.
For data set [9], the system named is pCgBEN (MF) efflux pump in S. cerevisiae YEM-40. The data set is classed as cell-based, C. glabrata.
Data set [10] has as its system YEM 13 C. albicans BEN up. Nature of the data set: microbe, parasite or virus in culture. In kind it is cell-based. As to conditions: YEM 13, 24 hrs, 80% inhibition; for MIC of compound in the presence of fluconazole (+): 1/8 × MIC of fluconazole.
Data set [11] deals with YEM 15 C. albicans, CDR1CDR2 up. Nature of the data set: microbe, parasite or virus in culture. In kind it is cell-based. Conditions: YEM 15, 24 hrs, 80% inhibition; for MIC of compound in the presence of fluconazole (+): 1/8 × MIC of fluconazole.
Another data set has as its system YEM 53 C. krusei. Briefly: FEPI MIC with/without 1/8 fluconazole MIC at 24 hrs (Table 11). The data set is classed as cell-based.
Data set [12] concerns YEM 17 C. glabrata, CgCDR up. The data set is classed as cell-based. As to conditions: 24 hrs, 80% inhibition; for MIC of compound in the presence of fluconazole (+): 1/8 × MIC of fluconazole.
For another data set, the system named is YEM 51 C. glabrata wt. Nature of the data set: FEPI MIC with/without 1/8 fluconazole MIC at 24 hrs (Table 11). In kind it is cell-based.
The next data set has as its system YEM 30 C. albicans wt. Described as above. In kind it is cell-based.
The test system of data set [13] is YEM 24 C. albicans ΔCDR1, ΔCDR2. Nature of the data set: microbe, parasite or virus in culture. In kind it is cell-based. As to conditions: YEM 24, 24 hrs, 80% inhibition; for MIC of compound in the presence of fluconazole (+): 1/8 × MIC of fluconazole.
The subject of data set [14] is YEM 27 C. albicans ΔCDR1ΔCDR2 ΔBENΔFLU1. Nature of the data set: microbe, parasite or virus in culture. The data set is classed as cell-based. As to conditions: YEM 27, 24 hrs, 80% inhibition; for MIC of compound in the presence of fluconazole (+): 1/8 × MIC of fluconazole.
The next data set concerns Aspergillus fumigatus. Briefly: FEPI MICs in combination with 1/4 the azole's MIC (Table 12). In kind it is cell-based. Also noted: FEPI MIC (alone): unit not given here. Conditions: for FEPI MIC with itraconazole, 60% Inh / FEPI MIC with itraconazole, 80% Inh: itraconazole 0.063 μg/ml (1/4 MIC); for FEPI MIC with ketoconazole, 60% Inh / FEPI MIC with ketoconazole, 80% Inh: ketoconazole 4 μg/ml (1/4 MIC); for FEPI MIC (alone): no azole, 35° C., CM Broth. The procedure: The combinations were tested against a series of Candida strain with known expression of efflux pumps or with complete deletion of all known pumps and Aspergillus fumigatus. Results are reported as minimum inhibitory concentration (MIC) of […] in the presence or absence of […]. A total of 27 distinct milbemycins were studied.

The mark [15] stands for this setting: YEM-40 pCgBEN, fluconazole fixed at FLUhalf 2.8.

pCDRI (ABC) efflux pump in S. cerevisiae YEM-1, sequence (P43071 whole entry): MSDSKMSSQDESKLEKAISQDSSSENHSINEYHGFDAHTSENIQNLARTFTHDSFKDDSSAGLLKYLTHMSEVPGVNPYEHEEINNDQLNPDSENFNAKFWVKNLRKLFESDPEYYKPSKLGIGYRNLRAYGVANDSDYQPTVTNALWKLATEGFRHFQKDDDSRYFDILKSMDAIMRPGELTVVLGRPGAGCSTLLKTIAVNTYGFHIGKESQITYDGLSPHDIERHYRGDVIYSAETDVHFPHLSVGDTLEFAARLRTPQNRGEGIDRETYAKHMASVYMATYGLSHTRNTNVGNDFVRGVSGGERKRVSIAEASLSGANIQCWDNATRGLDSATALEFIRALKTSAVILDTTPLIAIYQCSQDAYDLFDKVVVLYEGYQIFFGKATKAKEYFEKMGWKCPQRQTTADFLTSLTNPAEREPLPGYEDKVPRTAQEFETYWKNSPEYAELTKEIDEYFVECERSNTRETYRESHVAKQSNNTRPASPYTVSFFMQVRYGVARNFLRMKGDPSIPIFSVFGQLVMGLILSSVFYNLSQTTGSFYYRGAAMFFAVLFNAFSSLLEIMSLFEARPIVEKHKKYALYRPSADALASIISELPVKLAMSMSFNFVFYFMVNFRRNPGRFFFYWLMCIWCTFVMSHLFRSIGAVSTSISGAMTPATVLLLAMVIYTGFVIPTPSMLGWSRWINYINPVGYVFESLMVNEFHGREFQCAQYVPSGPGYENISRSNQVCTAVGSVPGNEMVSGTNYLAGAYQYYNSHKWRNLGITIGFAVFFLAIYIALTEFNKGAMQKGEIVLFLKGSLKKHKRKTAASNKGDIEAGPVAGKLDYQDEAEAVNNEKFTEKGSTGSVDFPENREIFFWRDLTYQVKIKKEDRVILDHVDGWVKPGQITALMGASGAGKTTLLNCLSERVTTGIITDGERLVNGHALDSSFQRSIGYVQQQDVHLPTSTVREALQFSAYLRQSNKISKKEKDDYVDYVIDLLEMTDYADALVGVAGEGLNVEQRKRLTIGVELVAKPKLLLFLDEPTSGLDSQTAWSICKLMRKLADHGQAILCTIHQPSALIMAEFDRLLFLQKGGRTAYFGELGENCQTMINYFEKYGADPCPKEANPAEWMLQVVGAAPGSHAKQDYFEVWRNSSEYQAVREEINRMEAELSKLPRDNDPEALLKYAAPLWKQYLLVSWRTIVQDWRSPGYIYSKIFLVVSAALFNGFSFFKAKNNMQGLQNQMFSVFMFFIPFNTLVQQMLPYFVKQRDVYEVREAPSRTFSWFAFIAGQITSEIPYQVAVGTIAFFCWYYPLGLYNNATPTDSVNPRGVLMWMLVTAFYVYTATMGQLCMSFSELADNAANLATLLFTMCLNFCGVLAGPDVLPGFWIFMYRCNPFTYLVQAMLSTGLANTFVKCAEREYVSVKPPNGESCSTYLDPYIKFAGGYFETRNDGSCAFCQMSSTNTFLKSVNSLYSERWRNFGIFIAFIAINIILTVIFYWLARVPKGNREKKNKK
pCDR2 (ABC) efflux pump in S. cerevisiae YEM-37, sequence (P78595 whole entry): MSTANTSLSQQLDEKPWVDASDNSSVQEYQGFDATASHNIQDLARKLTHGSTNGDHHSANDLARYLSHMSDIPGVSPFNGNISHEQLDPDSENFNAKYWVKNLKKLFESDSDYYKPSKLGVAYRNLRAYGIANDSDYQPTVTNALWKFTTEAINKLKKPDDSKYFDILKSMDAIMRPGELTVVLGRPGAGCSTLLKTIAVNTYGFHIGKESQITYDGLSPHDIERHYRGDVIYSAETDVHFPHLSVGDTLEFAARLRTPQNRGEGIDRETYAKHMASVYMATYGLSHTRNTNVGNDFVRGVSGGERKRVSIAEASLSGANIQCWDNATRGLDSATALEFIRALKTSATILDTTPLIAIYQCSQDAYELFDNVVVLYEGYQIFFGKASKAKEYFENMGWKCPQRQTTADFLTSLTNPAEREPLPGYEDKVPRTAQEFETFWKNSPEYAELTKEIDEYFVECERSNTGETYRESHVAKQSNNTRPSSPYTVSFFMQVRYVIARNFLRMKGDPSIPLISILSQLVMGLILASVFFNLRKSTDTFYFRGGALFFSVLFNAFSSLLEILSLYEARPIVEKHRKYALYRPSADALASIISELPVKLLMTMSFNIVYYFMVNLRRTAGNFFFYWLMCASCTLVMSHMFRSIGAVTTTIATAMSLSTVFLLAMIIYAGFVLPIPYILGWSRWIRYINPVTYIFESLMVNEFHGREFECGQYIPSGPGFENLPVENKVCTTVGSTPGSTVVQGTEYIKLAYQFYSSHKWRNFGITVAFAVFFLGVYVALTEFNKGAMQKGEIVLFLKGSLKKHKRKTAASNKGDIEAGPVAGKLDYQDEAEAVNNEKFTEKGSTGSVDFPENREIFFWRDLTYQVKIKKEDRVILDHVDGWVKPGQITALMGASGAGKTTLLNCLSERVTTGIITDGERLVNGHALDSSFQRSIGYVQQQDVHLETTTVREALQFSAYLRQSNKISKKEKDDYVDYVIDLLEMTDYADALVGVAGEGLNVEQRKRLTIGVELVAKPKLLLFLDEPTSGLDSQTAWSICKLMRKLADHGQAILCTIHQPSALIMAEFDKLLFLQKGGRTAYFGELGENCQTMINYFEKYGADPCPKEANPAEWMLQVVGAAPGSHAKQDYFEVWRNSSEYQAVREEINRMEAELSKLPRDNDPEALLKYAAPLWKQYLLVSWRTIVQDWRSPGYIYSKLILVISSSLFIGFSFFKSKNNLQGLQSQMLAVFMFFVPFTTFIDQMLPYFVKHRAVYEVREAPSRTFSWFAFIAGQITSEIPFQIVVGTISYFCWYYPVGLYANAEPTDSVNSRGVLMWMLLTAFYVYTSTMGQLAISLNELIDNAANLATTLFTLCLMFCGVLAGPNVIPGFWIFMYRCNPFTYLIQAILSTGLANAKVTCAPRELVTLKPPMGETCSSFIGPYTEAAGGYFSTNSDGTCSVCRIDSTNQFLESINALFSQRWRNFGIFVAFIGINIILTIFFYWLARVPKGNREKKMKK
pCgCDR (ABC) efflux pump in S. cerevisiae YEM-39, sequence (Q6FK23 whole entry): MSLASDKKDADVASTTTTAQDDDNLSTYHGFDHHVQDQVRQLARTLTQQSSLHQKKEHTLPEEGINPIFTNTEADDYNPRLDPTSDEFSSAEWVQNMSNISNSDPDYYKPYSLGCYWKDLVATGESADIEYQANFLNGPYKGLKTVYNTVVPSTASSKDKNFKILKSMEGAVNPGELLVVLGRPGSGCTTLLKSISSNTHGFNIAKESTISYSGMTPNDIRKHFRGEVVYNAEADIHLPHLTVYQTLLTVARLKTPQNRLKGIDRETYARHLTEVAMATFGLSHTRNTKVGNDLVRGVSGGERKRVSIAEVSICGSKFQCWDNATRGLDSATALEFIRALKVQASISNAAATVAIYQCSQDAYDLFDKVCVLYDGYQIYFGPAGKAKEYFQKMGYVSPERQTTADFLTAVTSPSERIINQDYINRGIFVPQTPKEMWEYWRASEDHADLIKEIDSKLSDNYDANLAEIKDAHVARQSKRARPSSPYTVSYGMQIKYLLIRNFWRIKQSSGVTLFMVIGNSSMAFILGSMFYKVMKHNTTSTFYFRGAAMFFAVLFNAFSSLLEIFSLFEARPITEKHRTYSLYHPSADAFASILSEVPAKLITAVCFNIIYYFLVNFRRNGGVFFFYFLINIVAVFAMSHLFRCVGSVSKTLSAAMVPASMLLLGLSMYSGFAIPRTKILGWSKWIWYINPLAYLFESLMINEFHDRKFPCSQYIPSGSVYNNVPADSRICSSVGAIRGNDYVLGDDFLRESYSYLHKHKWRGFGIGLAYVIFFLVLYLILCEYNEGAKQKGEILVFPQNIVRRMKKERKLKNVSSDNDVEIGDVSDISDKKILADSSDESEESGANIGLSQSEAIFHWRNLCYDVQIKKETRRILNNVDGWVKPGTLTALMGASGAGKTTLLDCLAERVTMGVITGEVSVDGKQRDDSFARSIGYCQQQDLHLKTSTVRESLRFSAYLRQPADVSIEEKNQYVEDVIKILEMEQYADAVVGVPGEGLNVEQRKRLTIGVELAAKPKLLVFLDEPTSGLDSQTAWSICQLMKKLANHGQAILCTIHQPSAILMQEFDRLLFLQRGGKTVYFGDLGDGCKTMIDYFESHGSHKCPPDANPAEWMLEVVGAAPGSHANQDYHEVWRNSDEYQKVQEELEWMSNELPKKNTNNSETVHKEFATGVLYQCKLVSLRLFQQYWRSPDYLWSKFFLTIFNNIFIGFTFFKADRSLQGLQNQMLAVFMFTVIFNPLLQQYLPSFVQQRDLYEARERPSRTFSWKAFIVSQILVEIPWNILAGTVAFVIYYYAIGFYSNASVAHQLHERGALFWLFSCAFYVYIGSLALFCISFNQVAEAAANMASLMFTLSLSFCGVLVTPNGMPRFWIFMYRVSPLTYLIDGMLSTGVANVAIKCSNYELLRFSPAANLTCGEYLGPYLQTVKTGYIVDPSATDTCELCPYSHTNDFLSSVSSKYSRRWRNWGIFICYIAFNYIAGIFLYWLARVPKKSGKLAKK
pFLU (MF) efflux pump in S. cerevisiae YEM-38, sequence (G1UB37 whole entry): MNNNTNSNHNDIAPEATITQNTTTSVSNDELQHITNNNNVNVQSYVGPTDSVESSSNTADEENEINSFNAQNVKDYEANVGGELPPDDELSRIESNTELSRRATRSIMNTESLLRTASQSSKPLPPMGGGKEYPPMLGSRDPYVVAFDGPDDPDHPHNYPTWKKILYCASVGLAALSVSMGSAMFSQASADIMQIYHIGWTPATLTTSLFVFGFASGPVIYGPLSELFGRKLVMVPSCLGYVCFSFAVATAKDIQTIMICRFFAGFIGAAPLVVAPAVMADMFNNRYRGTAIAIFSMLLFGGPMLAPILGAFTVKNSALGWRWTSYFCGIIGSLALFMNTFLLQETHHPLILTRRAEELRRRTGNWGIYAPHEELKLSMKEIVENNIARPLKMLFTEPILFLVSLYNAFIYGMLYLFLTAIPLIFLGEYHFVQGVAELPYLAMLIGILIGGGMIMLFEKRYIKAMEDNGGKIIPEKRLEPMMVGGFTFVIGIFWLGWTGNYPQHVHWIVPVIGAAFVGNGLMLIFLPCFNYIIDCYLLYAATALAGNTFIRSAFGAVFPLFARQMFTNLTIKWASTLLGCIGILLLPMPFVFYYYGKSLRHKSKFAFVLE

As for `COc1cccc2c1C(=O)c1c(O)c3c(c(O)c1C2=O)C[C@@](O)(C(=O)CO)C[C@@H]3O[C@H]1C[C@H](N)[C@H](O)[C@H](C)O1` [Adriamycin, adriamycin, reference compound], in data set [1], the “Adriamycin TC50, P388” value worked out at 0.009 µg/mL. Moreover, the “Adriamycin TC50, P388/ADM” value in data set [2] turned out to be 2.954 µg/mL. In [3], the “Ratio [P388/A]/[P388]” value stood at 337.

Turning to `CO[C@@H]1C(C)=C[C@H]2C(=O)O[C@H]3C[C@@H](C/C=C(\C)C[C@@H](C)/C=C/C=C4\CO[C@H]1[C@@]42O)O[C@]1(C3)C[C@H](O)[C@H](C)[C@@H](/C(C)=C/C(C)C)O1` [Compound 16, LL-F2849λ (nemedectinλ)], the IC50 is 1.6 µM in data set [4] (read-out: FEPIhalf (concentration needed to reduce activity of efflux pump by 50%), YEM-1 pCDRI, fluconazole fixed at FLUhalf 5.6); 0.399 µM in data set [5] (read-out: FEPIhalf (concentration needed to reduce activity of efflux pump by 50%), YEM-37 pCDR2, fluconazole fixed at FLUhalf 1); 102 µM in data set [6] (read-out: FEPIhalf (concentration needed to reduce activity of efflux pump by 50%), YEM-39 pCgCDR, fluconazole fixed at FLUhalf 4); above 102 µM in [7] (read-out: FEPIhalf (concentration needed to reduce activity of efflux pump by 50%), YEM-2 pBEN, fluconazole fixed at FLUhalf 5.6); above 102 µM in [8] (read-out: FEPIhalf (concentration needed to reduce activity of efflux pump by 50%), YEM-38 pFLU, fluconazole fixed at FLUhalf 2). The “FEPIhalf (concentration needed to reduce activity of efflux pump by 50%)” value in data set [9] (setting [15]) is above 64. Further, the MIC of compound in the presence of fluconazole (+) in data set [10] is 64 µg/mL; in data set [11], 0.125 µg/mL; in the data set on YEM 53 C. krusei it was above 64 µg/mL; in data set [12], 32 µg/mL; in the data set on YEM 51 C. glabrata wt, 2 µg/mL; in the data set with YEM 30 C. albicans wt, “≦0.03”. Also, the MIC of compound in the presence of fluconazole (+) in data set [13] and in data set [14] was above 64 µg/mL each time. The MIC of compound in the absence of fluconazole (−) in [10] is above 64 µg/mL; in [11], above 64 µg/mL; in the data set with YEM 53 C. krusei (YEM 53, 24 hrs, 80% inhibition), above 64 µg/mL; in data set [12] it was above 64 µg/mL; in the data set on YEM 51 C. glabrata wt (YEM 51, 24 hrs, 80% inhibition), above 64 µg/mL; in the data set on YEM 30 C. albicans wt (YEM 30, 24 hrs, 80% inhibition) it was above 64 µg/mL. Moreover, the MIC of compound in the absence of fluconazole (−) in data set [13] and in data set [14] was above 64 µg/mL in each case. Besides, the “FEPI MIC with fluconazole, 60% Inh” value with Aspergillus fumigatus is on record as above 64. In addition, the “FEPI MIC with fluconazole, 80% Inh” value in the data set with Aspergillus fumigatus is recorded as above 64. Besides, in the data set on Aspergillus fumigatus (60% inhibition), the “FEPI MIC with itraconazole, 60% Inh” value is 1. Further, in the data set with Aspergillus fumigatus (80% inhibition), the “FEPI MIC with itraconazole, 80% Inh” value was above 64. In addition, the “FEPI MIC with ketoconazole, 60% Inh” value with Aspergillus fumigatus (60% inhibition) is recorded as 0.125. In the data set on Aspergillus fumigatus (80% inhibition), the “FEPI MIC with ketoconazole, 80% Inh” value is given as 0.125. Moreover, the “FEPI MIC (alone)” value in the data set on Aspergillus fumigatus (80% inhibition) is on record as above 64.

Consider `CCC(CC)C(=O)OCC1=C[C@H]2C(=O)O[C@H]3C[C@@H](C/C=C(\C)C[C@@H](C)/C=C/C=C4\CO[C@H]([C@@H]1O)[C@@]42O)O[C@@]1(CC[C@H](C)[C@@H](C)O1)C3` [Compound 21, 4a-O-(2-ethyl)butyryl milbemycin α1], for which the IC50 in [4] was 1.56 µM; in data set [5], 6.22 µM; in data set [6], above 99.6 µM; in data set [7], above 99.6 µM; in data set [8], above 99.6 µM. For the same molecule, the “FEPIhalf (concentration needed to reduce activity of efflux pump by 50%)” value in data set [9] (setting [15]) is on record as above 64. The MIC of compound in the presence of fluconazole (+) in data set [10] is above 64 µg/mL; in data set [11], 1 µg/mL; in the data set on YEM 53 C. krusei, 8 µg/mL; in data set [12], 8 µg/mL; in the data set on YEM 51 C. glabrata wt, 8 µg/mL; with YEM 30 C. albicans wt, 0.125 µg/mL. Further, the MIC of compound in the presence of fluconazole (+) in [13] and in data set [14] was above 64 µg/mL in each case. Moreover, the MIC of compound in the absence of fluconazole (−) is above 64 µg/mL in data set [10]; above 64 µg/mL in data set [11]; above 64 µg/mL in the data set on YEM 53 C. krusei (YEM 53, 24 hrs, 80% inhibition); above 64 µg/mL in data set [12]; above 64 µg/mL with YEM 51 C. glabrata wt (YEM 51, 24 hrs, 80% inhibition); above 64 µg/mL with YEM 30 C. albicans wt (YEM 30, 24 hrs, 80% inhibition). The MIC of compound in the absence of fluconazole (−) in data set [13] and in [14] was above 64 µg/mL each time. The “FEPI MIC with fluconazole, 60% Inh” value with Aspergillus fumigatus amounted to 8. In addition, the “FEPI MIC with fluconazole, 80% Inh” value in the data set on Aspergillus fumigatus is 8. In the data set with Aspergillus fumigatus (60% inhibition), the “FEPI MIC with itraconazole, 60% Inh” value stood at 1. For the same molecule, the “FEPI MIC with itraconazole, 80% Inh” value in the data set with Aspergillus fumigatus (80% inhibition) turned out to be 8. The “FEPI MIC with ketoconazole, 60% Inh” value with Aspergillus fumigatus (60% inhibition) is “≦0.063”. In the data set with Aspergillus fumigatus (80% inhibition), the “FEPI MIC with ketoconazole, 80% Inh” value is on record as “≦0.063”. Besides, the “FEPI MIC (alone)” value with Aspergillus fumigatus (80% inhibition) is above 64.

Take LL-F2849α oxime [Compound 18]: the “FEPIhalf (concentration needed to reduce activity of efflux pump by 50%)” value was above 64 in [4] (YEM-1 pCDRI, fluconazole fixed at FLUhalf 5.6); above 64 in data set [5] (YEM-37 pCDR2, fluconazole fixed at FLUhalf 1); above 64 in data set [6] (YEM-39 pCgCDR, fluconazole fixed at FLUhalf 4); above 64 in data set [7] (YEM-2 pBEN, fluconazole fixed at FLUhalf 5.6); above 64 in [8] (YEM-38 pFLU, fluconazole fixed at FLUhalf 2); above 64 in [9]. The MIC of compound in the presence of fluconazole (+) in [10] is above 64 µg/mL; in data set [11], above 64 µg/mL; in the data set on YEM 53 C. krusei (YEM 53, 1/8 × MIC of fluconazole, 24 hrs, 80% inhibition), above 64 µg/mL; in [12], above 64 µg/mL; with YEM 51 C. glabrata wt (YEM 51, 1/8 × MIC of fluconazole, 24 hrs, 80% inhibition), above 64 µg/mL; in the data set on YEM 30 C. albicans wt (YEM 30, 1/8 × MIC of fluconazole, 24 hrs, 80% inhibition) it was “≦0.03”. In addition, the MIC of compound in the presence of fluconazole (+) in [13] and in [14] was above 64 µg/mL in each case. The MIC of compound in the absence of fluconazole (−) in data set [10] is above 64 µg/mL; in data set [11] it was above 64 µg/mL; in the data set on YEM 53 C. krusei (YEM 53, 24 hrs, 80% inhibition) it was above 64 µg/mL; in data set [12], above 64 µg/mL; with YEM 51 C. glabrata wt (YEM 51, 24 hrs, 80% inhibition), above 64 µg/mL; in the data set on YEM 30 C. albicans wt (YEM 30, 24 hrs, 80% inhibition) it was above 64 µg/mL. In addition, the MIC of compound in the absence of fluconazole (−) in data set [13] and in data set [14] was above 64 µg/mL each time. Also, the “FEPI MIC with fluconazole, 60% Inh” value with Aspergillus fumigatus (fluconazole 32 μg/ml (1/4 MIC), 60% inhibition) was determined as 8. The “FEPI MIC with fluconazole, 80% Inh” value in the data set with Aspergillus fumigatus (fluconazole 32 μg/ml (1/4 MIC), 80% inhibition) is reported as above 64. Moreover, in the data set with Aspergillus fumigatus (60% inhibition), the “FEPI MIC with itraconazole, 60% Inh” value is above 64. The “FEPI MIC with itraconazole, 80% Inh” value in the data set with Aspergillus fumigatus (80% inhibition) is listed as above 64. Besides, in the data set on Aspergillus fumigatus (60% inhibition), the “FEPI MIC with ketoconazole, 60% Inh” value is recorded as 0.125. Besides, in the data set with Aspergillus fumigatus (80% inhibition), the “FEPI MIC with ketoconazole, 80% Inh” value was 0.125. In addition, in the data set on Aspergillus fumigatus (80% inhibition), the “FEPI MIC (alone)” value is above 64.
